In brackets after ≈: the same amount, converted by molar mass.
Assays:
Test in all cases: MIC, broth double dilution
[1] = system: Candida albicans ATCC 10231; assay type: cell-based; settings: 96-well plate, 37°C, 16 h, absorbance at 600 nm, mean of three independent experiments
Description: (§1) The standard strain of C. albicans (ATCC 10231), three clinically isolated antibiotic-resistant strains (C. albicans 0065, C. albicans 0063, and C. albicans 6), E. coli (ATCC 8739), and S. aureus (ATCC 6538) were obtained from Kunming Medical University. T. rubrum was purchased from BeNa Culture Collection (BNCC, CAS no. 340195). Different strains of C. albicans, E. coli, and S. aureus were cultured with shaking at 37°C in YM medium and Luria-Bertani (LB) medium. T. rubrum was cultured at 28°C in potato dextrose agar (PDA) medium according to the manufacturer’s instructions.
(§2) According to CLSI protocols, the MIC is determined as a point where there is “zero detectable growth,” The MIC of blapstin against different fungal strains was determined by use of the double dilution method, namely, broth dilution determination. In brief, the different strains were grown in their corresponding media at 28°C or 37°C until they reached the exponential growth phase. Colistin E and fluconazole were used as positive controls. Blapstin was diluted to various concentrations in sterile saline: 100 μL of sterile saline was added to the second well of a sterile 96-well plate, and then 100 μL of blapstin was added to the first and second wells. The solution from the second well was double-diluted with sterile saline until the 11th well, from which 100 μL was removed. In the 12th well, no blapstin was added, and sterile saline was used as a negative control. Afterward, 100 μL of the diluted microbial solution was added to each well, followed by incubation at 37°C for 16 h. To assess the antifungal activity of blapstin against the T. rubrum strain, the spore germination rates were first determined microscopically with a hemocytometer. T. rubrum was diluted with normal saline to 1 × 10^5 CFU/mL and then incubated with various concentrations of blapstin at 28°C for 16 h. The absorbance at 600 nm was measured by a microplate reader (Epoch Etock; Biotek, USA) to estimate the inhibition of bacteria and fungi by blapstin.

[2] = system: Trichophyton rubrum; assay type: cell-based; settings: 1 × 10^5 CFU/mL, 28°C, 16 h, absorbance at 600 nm, mean of three independent experiments, ND = no bacteriostatic activity
Description: as §1, §2

[3] = system: C. albicans 0065; assay type: cell-based, Candida albicans; settings: 37°C, 16 h, absorbance at 600 nm, mean of three independent experiments
Description: as §1, §2

[4] = system: C. albicans 0063; assay type: cell-based, Candida albicans; settings: 37°C, 16 h, absorbance at 600 nm, mean of three independent experiments
Description: as §1, §2

[5] = system: C. albicans 6; assay type: cell-based, Candida albicans; settings: 37°C, 16 h, absorbance at 600 nm, mean of three independent experiments
Description: as §1, §2

[6] = system: Escherichia coli ATCC 8739; assay type: cell-based; settings: 96-well plate, 37°C, 16 h, absorbance at 600 nm, mean of three independent experiments, ND = no bacteriostatic activity
Description: as §1, §2

[7] = system: Staphylococcus aureus ATCC 6538; assay type: cell-based; settings: 96-well plate, 37°C, 16 h, absorbance at 600 nm, mean of three independent experiments, ND = no bacteriostatic activity
Description: as §1, §2

[8] = clinically isolated antibiotic-resistant strain

Compound	MIC ([1]; Candida albicans, ATCC10231, standard strain) [µM]	MIC [2] [µM]	MIC ([3]; Candida albicans, 0065, clinically isolated antibiotic-resistant strain) [µM]	MIC ([4]; Candida albicans, 0063, clinically isolated antibiotic-resistant strain) [µM]	MIC ([5]; Candida albicans, 6, clinically isolated antibiotic-resistant strain) [µM]	MIC ([1]; standard strain) [µM]	MIC [6] [µM]	MIC [7] [µM]	MIC [3, 8] [µM]	MIC [4, 8] [µM]	MIC [5, 8] [µM]
OC(Cn1cncn1)(Cn1cncn1)c1ccc(F)cc1F [Fluconazole]	15 (≈ 4.59 µg/mL)	12.2 (≈ 3.74 µg/mL)	70 (≈ 21.4 µg/mL)	61 (≈ 18.7 µg/mL)	61 (≈ 18.7 µg/mL)						
Colistin E						22	3	81.1	5.4	5.4	1.1

Reference: article PMC10269622, “Blapstin, a Diapause-Specific Peptide-Like Peptide from the Chinese Medicinal Beetle Blaps rhynchopetera, Has Antifungal Function” (Microbiology Spectrum, 2023)
